Source: ChEMBL document CHEMBL3045537, “Synthesis of 2-(aryl)-5-(arylidene)-4-thiazolidinone derivatives with potential analgesic and anti-inflammatory activity” (2012)

Assays:
Assay type in all cases: functional
Rattus norvegicus [1] = test: Anti-inflammatory activity inRattus norvegicus albino (rat) assessed as reduction of carrageenan-induced paw edema at 10 mg/kg, po administered 1 hr prior challenge measured after 4 hr post challenge by plethismometer; set-up: scale not given: the % may be the effect or the level left
Mus musculus = test: Analgesic activity in Mus musculus (mouse) assessed as protection against acetic acid-induced writhing at 10 mg/kg, po administered 30 min prior challenge measured for 20 min
Rattus norvegicus [2] = test: Anti-inflammatory activity inRattus norvegicus albino (rat) assessed as reduction of carrageenan-induced paw edema at 10 mg/kg, po administered 1 hr prior challenge measured after 2 hr post challenge by plethismometer; set-up: scale not given: the % may be the effect or the level left

Row | Structure (SMILES) | Activity (Rattus norvegicus [1]) [%] | Activity (Mus musculus) [%] | Activity (Rattus norvegicus [2]) [%]
1 | O=C(NN1C(=O)/C(=C/c2cccc(Br)c2)SC1c1cccc([N+](=O)[O-])c1)c1ccc(-c2ccccc2)cc1 (configuration not stated) | 50.78 | 37.5 | 38.7
2 | O=C(NN1C(=O)/C(=C/c2cccc([N+](=O)[O-])c2)SC1c1ccc(Cl)cc1)c1ccc(-c2ccccc2)cc1 (configuration not stated) | 56.35 | 27.5 | 45.21
3 | O=C(NN1C(=O)/C(=C/c2ccc(Cl)cc2)SC1c1cccc([N+](=O)[O-])c1)c1ccc(-c2ccccc2)cc1 (configuration not stated) | 49.23 | 46.25 | 39.94
4 | O=C(NN1C(=O)/C(=C/c2ccc(Cl)cc2)SC1c1ccc(F)cc1)c1ccc(-c2ccccc2)cc1 (configuration not stated) | 52.92 | 46.25 | 43.64
5 | O=C(NN1C(=O)/C(=C/c2cccc([N+](=O)[O-])c2)SC1c1cccc([N+](=O)[O-])c1)c1ccc(-c2ccccc2)cc1 (configuration not stated) | 51.37 | 43.35 | 39.63
6 | COc1ccc(/C=C2\SC(c3ccc(F)cc3)N(NC(=O)c3ccc(-c4ccccc4)cc3)C2=O)cc1 (configuration not stated) | 53.62 | 37.93 | 45.82
7 | COc1ccc(C2S/C(=C\c3ccc(Cl)cc3)C(=O)N2NC(=O)c2ccc(-c3ccccc3)cc2)cc1 (configuration not stated) | 71.83 | 32.1 | 57.9
8 | COc1ccc(C2S/C(=C\c3ccccc3)C(=O)N2NC(=O)c2ccc(-c3ccccc3)cc2)cc1 (configuration not stated) | 68.74 | 38.35 | 45.83
9 | O=C([O-])Cc1ccccc1Nc1c(Cl)cccc1Cl.[Na+] [DICLOFENAC SODIUM] | 79.26 | 68.5 | 54.18
10 | COc1ccc(/C=C2\SC(c3cccc([N+](=O)[O-])c3)N(NC(=O)c3ccc(-c4ccccc4)cc3)C2=O)cc1 (configuration not stated) | 48.92 | 37.93 | 37.78
11 | COc1ccc(/C=C2\SC(c3ccc(Cl)cc3)N(NC(=O)c3ccc(-c4ccccc4)cc3)C2=O)cc1 (configuration not stated) | 53.87 | 29.6 | 45.83
12 | COc1ccc(/C=C2\SC(c3ccc(OC)cc3)N(NC(=O)c3ccc(-c4ccccc4)cc3)C2=O)cc1 (configuration not stated) | 70.28 | 40.43 | 49.54
13 | O=C(NN1C(=O)/C(=C/c2ccccc2)SC1c1ccc(Cl)cc1)c1ccc(-c2ccccc2)cc1 (configuration not stated) | 55.11 | 20.43 | 48.92
14 | O=C(NN1C(=O)/C(=C/c2cccc(Br)c2)SC1c1ccc(F)cc1)c1ccc(-c2ccccc2)cc1 (configuration not stated) | 52.08 | 37.5 | 41.76
15 | O=C(NN1C(=O)/C(=C/c2ccc(Cl)cc2)SC1c1ccc(Cl)cc1)c1ccc(-c2ccccc2)cc1 (configuration not stated) | 55.34 | 22.93 | 46.14
16 | COc1ccc(C2S/C(=C\c3cccc(Br)c3)C(=O)N2NC(=O)c2ccc(-c3ccccc3)cc2)cc1 (configuration not stated) | 69.05 | 33.35 | 46.75
17 | O=C(NN1C(=O)/C(=C/c2cccc(Br)c2)SC1c1ccc(Cl)cc1)c1ccc(-c2ccccc2)cc1 (configuration not stated) | 54.8 | 17.93 | 44.56
18 | COc1ccc(C2S/C(=C\c3cccc([N+](=O)[O-])c3)C(=O)N2NC(=O)c2ccc(-c3ccccc3)cc2)cc1 (configuration not stated) | 71.21 | 36.25 | 47.68
19 | O=C(NN1C(=O)/C(=C/c2ccccc2)SC1c1cccc([N+](=O)[O-])c1)c1ccc(-c2ccccc2)cc1 (configuration not stated) | 47.99 | 40.85 | 38.09
